Test results taken from US11046709B2, “Fused 1,4-diazepines as BET bromodomain inhibitors” (THE REGENTS OF THE UNIVERSITY OF MICHIGAN, priority 2017, dated 2021).
Like-named read-outs stand apart in the source and are kept apart here.

Experiments:
[1] = biological target: T1, recombinant BRD4 BD1 (Homo sapiens, UniProt O60885); experiment: Competitive fluorescence-polarization (FP) binding assay, BRD4 BD1
T1 construct: for recombinant BRD4 BD1 and BRD4 BD2 proteins
Procedure: (§1) Fluorescence Polarization (FP) competitive binding studies were carried out using a FAM labeled fluorescent probe, see, e.g., Cpd. No. 350 of US 2014/0256706, to determine binding affinities of representative Compounds of the Disclosure for recombinant BRD4 BD1 and BRD4 BD2 proteins. Equilibrium dissociation constants (Kd) values of the fluorescent probe to BRD4 BD1 and BD2 proteins were determined from protein saturation experiments by monitoring the total fluorescence polarization of mixtures composed with the fluorescent probe at a fixed concentration and proteins with increasing concentrations up to full saturation. Serial dilutions of testing proteins were mixed with the fluorescent probe to a final volume of 200 μl in the assay buffer (100 mM phosphate buffer, pH=6.5, 0.01% Triton X-100 (Sigma, 282103) being added right before assays). Final fluorescent probe concentration was 1.5 nM for both proteins. Plates were incubated at room temperature for 30 minutes with gentle shaking to assure equilibrium. FP values in millipolarization units (mP) were measured using the Infinite M-1000 plate reader (Tecan U.S., Research Triangle Park, N.C.) in Microfluor 1 96-well, black, round-bottom plates (Thermo Scientific, Waltham, Mass.) at an excitation wavelength of 485 nm and an emission wavelength of 530 nm. Kd values of the fluorescent probe, which were calculated by fitting the sigmoidal dose-dependent FP increases as a function of protein concentrations using Graphpad Prism 6.0 software (Graphpad Software, San Diego, Calif.), are 5.5 and 3.0 nM to BDR4 BD1 and 2, respectively.
(§2) The IC50 and Ki values of compounds were determined in a competitive binding experiment. See US 2014/0256706. Mixtures of 10 μl of the tested compounds in assay buffer with 40% Ethylene Glycol and 190 μl of preincubated protein/probe complex solution in the assay buffer (100 mM potassium phosphate, pH 6.5, 0.01% Triton X-100) were added into assay plates which were incubated at room temperature for 30 minutes with gentle shaking. Final concentrations of proteins were 10 and 6 nM in assays for BRD4 BD1 and BD2, respectively. Final probe concentration is 1.5 nM in both assays. Negative controls containing protein/probe complex only (equivalent to 0% inhibition), and positive controls containing only free probes (equivalent to 100% inhibition), were included in each assay plate. FP values were measured as described above. IC50 values were determined by nonlinear regression fitting of the competition curves. Instead of being calculated from IC50 values as described before. Ki values of competitive inhibitors were obtained directly by nonlinear regression fitting as well, based upon the Kd values of the probe to different proteins, and concentrations of the proteins and probes in the competitive assays (US 2014/0256706; Wang, FEBS Lett. 360:111 (1995); Zhang et al., Analytical Biochemistry, 331:138 (2004)).
(§3) Representative compounds in Table 5 were evaluated for their binding affinities to BRD4 BD1 and BD2 proteins using the Competitive Fluorescence-Polarization (FP) Assays described in Example 6, with the data included in Table 6.

[2] = biological target: T2, recombinant BRD4 BD2 (Homo sapiens, UniProt O60885); experiment: Competitive fluorescence-polarization (FP) binding assay, BRD4 BD2
T2 construct: for recombinant BRD4 BD1 and BRD4 BD2 proteins
Procedure: as §1, §2, §3

[3] = test system: MDA-MB-231; experiment: Cell growth inhibition, 4-day proliferation assay, MDA-MB-231; type: cell-based; details: Homo sapiens
In short: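 Cells seeded at 3,000-10,000/well, treated with serially diluted compounds 4 days at 37 °C, 5% CO2. Viability by WST-8 (10% v/v, 1-2 h, A450); readings normalized to DMSO-treated cells, IC50 by four-parameter nonlinear regression.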

[4] = test system: MOLM-13; experiment: Cell growth inhibition, 4-day proliferation assay, MOLM-13; type: cell-based; details: Homo sapiens
[5] = Plasma exposure after oral gavage in mice, LC-MS/MS; type: in vivo; details: mouse, in vivo, po, 25 mg/kg
Procedure: For a number of representative compounds in Table 5, their plasma exposures with oral administration in mice via oral gavage were determined by LC-MS/MS, with the data shown in Table 9.

[6] = MOLM-13, WST-8 assay, Table 7, read-out: Cell growth inhibition (IC50 (nM)) MOLM-13
[7] = MDA-MB-231, WST-8 assay, Table 7, read-out: Cell growth inhibition (IC50 (nM)) MDA-MB-231
[8] = MOLM-13, 96 h, read-out: Cell IC50 (nM) MOLM13

In the case of `Cc1c(C#Cc2cnn(CCC(N)=O)c2)sc2c1C(c1ccc(Cl)cc1)=N[C@@H](C)c1nnc(C)n1-2` [Compound 103, (S)-3-(4-((4-(4-chlorophenyl)-3,6,9-trimethyl-6H-thieno[3,2-f][1,2,4]triazolo[4,3-a][1,4]diazepin-2-yl)ethynyl)-1H-pyrazol-1-yl)propanamide], the IC50 [1] is reported as 4 nM, the IC50 [2] is reported as 15.4 nM and the IC50 ([3]; MDA-MB-231, read-out: Cell growth inhibition (IC50 (nM)) MDA-MB-231) is reported as 60 ± 20 nM.

`Cc1nnc(C[C@@H]2N=C(c3ccc(Cl)cc3)c3c(sc(C#CC4CCOCC4)c3C)-n3c(C)nnc32)s1` [Compound 151, (S)-4-(4-chlorophenyl)-3,9-dimethyl-6-((5-methyl-1,3,4-thiadiazol-2-yl)methyl)-2-((tetrahydro-2H-pyran-4-yl)ethynyl)-6H-thieno[3,2-f][1,2,4]triazolo[4,3-a][1,4]diazepine] gave an IC50 [4, 6] of 81.6 nM, a concentration at 1 h [5] of 451 ng/mL and a concentration at 3 h [5] of 299 ng/mL. It also gave a concentration at 6 h [5] of 115 ng/mL.

Work on `Cc1c(C#CC2CCOCC2)sc2c1C(c1ccc(Cl)cc1)=N[C@@H](CC(N)=O)c1nnc(C)n1-2` [Compound 152, (S)-2-(4-(4-chlorophenyl)-3,9-dimethyl-2-((tetrahydro-2H-pyran-4-yl)ethynyl)-6H-thieno[3,2-f][1,2,4]triazolo[4,3-a][1,4]diazepin-6-yl)acetamide] yielded an IC50 [4, 6] of 30 nM, a concentration at 1 h [5] of 1120 ng/mL and a concentration at 3 h [5] of 472 ng/mL. The concentration at 6 h [5] was 231 ng/mL.

Molecule `Cc1c(C#CC2CCOCC2)sc2c1C(c1ccc(Cl)cc1)=N[C@@H](CC(=O)N1CC(F)(F)C1)c1nnc(C)n1-2` [Compound 156, (S)-2-(4-(4-chlorophenyl)-3,9-dimethyl-2-((tetrahydro-2H-pyran-4-yl)ethynyl)-6H-thieno[3,2-f][1,2,4]triazolo[4,3-a][1,4]diazepin-6-yl)-1-(3,3-difluoroazetidin-1-yl)ethan-1-one] has an IC50 [4, 6] of 36.1 nM, a concentration at 1 h [5] of 805 ng/mL and a concentration at 3 h [5] of 473 ng/mL. For the same molecule, the concentration at 6 h [5] was 226 ng/mL.

Molecule `Cc1nnc(C[C@@H]2N=C(c3ccc(Cl)cc3)c3c(sc(C#Cc4ccccn4)c3C)-n3c(C)nnc32)o1` [Compound 129, (S)-2-((4-(4-chlorophenyl)-3,9-dimethyl-2-(pyridin-2-ylethynyl)-6H-thieno[3,2-f][1,2,4]triazolo[4,3-a][1,4]diazepin-6-yl)methyl)-5-methyl-1,3,4-oxadiazole] has an IC50 ([1]; competitive FP, Table 6, read-out: IC50 as determinined in FP assays BRD4 BD1) of 9.4 nM, an IC50 ([2]; competitive FP, Table 6, read-out: IC50 as determinined in FP assays BRD4 BD2) of 27.6 nM and an IC50 [3, 7] of 6 nM.

In the case of `CCNC(=O)C[C@@H]1N=C(c2ccc(Cl)cc2)c2c(sc(C#Cc3cnn(C)c3)c2C)-n2c(C)nnc21` [Compound 167, (S)-2-(4-(4-chlorophenyl)-3,9-dimethyl-2-((1-methyl-1H-pyrazol-4-yl)ethynyl)-6H-thieno[3,2-f][1,2,4]triazolo[4,3-a][1,4]diazepin-6-yl)-N-ethylacetamide], the IC50 [4, 6] is reported as 26.7 nM, the IC50 [3, 7] is reported as 129 ± 40 nM and the concentration at 1 h [5] is reported as 12 ng/mL. It also gave a concentration at 3 h [5] of less than 1 ng/mL and a concentration at 6 h [5] of less than 1 ng/mL.

In the case of `Cc1nnc(C[C@@H]2N=C(c3ccc(Cl)cc3)c3c(sc(C#CC4(C)COC4)c3C)-n3c(C)nnc32)o1` [Compound 149, (S)-2-((4-(4-chlorophenyl)-3,9-dimethyl-2-((3-methyloxetan-3-yl)ethynyl)-6H-thieno[3,2-f][1,2,4]triazolo[4,3-a][1,4]diazepin-6-yl)methyl)-5-methyl-1,3,4-oxadiazole], the concentration at 1 h [5] is reported as 13000 ng/mL, the concentration at 3 h [5] is reported as 12800 ng/mL and the concentration at 6 h [5] is reported as 6640 ng/mL.

`C#Cc1sc2c(c1C)C(c1ccc(Cl)cc1)=NCc1nnc(C)n1-2` [compound 19, 4-(4-chlorophenyl)-2-ethynyl-3,9-dimethyl-6H-thieno[3,2-f][1,2,4]triazolo[4,3-a][1,4]diazepine] gave an IC50 [1] of 191 nM, an IC50 [2] of 227 nM and an IC50 [4, 8] of 2120 nM.

In the case of `Cc1c(C#Cc2cncn2C)sc2c1C(c1ccc(Cl)cc1)=N[C@@H](CC(N)=O)c1nnc(C)n1-2` [Compound 168, (S)-2-(4-(4-chlorophenyl)-3,9-dimethyl-2-((1-methyl-1H-imidazol-5-yl)ethynyl)-6H-thieno[3,2-f][1,2,4]triazolo[4,3-a][1,4]diazepin-6-yl)acetamide], the IC50 [4, 6] is reported as 145 nM, the IC50 [3, 7] is reported as 716 ± 162 nM and the concentration at 1 h [5] is reported as 80 ng/mL. For the same molecule, the concentration at 3 h [5] was 22 ng/mL and the concentration at 6 h [5] was 20 ng/mL.

`C#Cc1sc2c(c1C)C(c1ccc(Cl)cc1)=N[C@@H](C)c1nnc(C)n1-2` [compound 20, (S)-4-(4-chlorophenyl)-2-ethynyl-3,6,9-trimethyl-6H-thieno[3,2-f][1,2,4]triazolo[4,3-a][1,4]diazepine] showed an IC50 [1] of 103 nM, an IC50 [2] of 41.1 nM and an IC50 [4, 8] of 16 nM.

Work on `Cc1c(C#Cc2cnn(C)c2)sc2c1C(c1ccc(Cl)cc1)=N[C@@H](CC(N)=O)c1nnc(C)n1-2` [Compound 166, (S)-2-(4-(4-chlorophenyl)-3,9-dimethyl-2-((1-methyl-1H-pyrazol-4-yl)ethynyl)-6H-thieno[3,2-f][1,2,4]triazolo[4,3-a][1,4]diazepin-6-yl)acetamide] yielded an IC50 [4, 6] of 28.9 nM, an IC50 [3, 7] of 214 ± 42.2 nM and a concentration at 1 h [5] of 55 ng/mL. It also gave a concentration at 3 h [5] of 30 ng/mL and a concentration at 6 h [5] of less than 1 ng/mL.

For `CCNC(=O)C[C@@H]1N=C(c2ccc(Cl)cc2)c2c(sc(C#Cc3cncn3C)c2C)-n2c(C)nnc21` [Compound 169, (S)-2-(4-(4-chlorophenyl)-3,9-dimethyl-2-((1-methyl-1H-imidazol-5-yl)ethynyl)-6H-thieno[3,2-f][1,2,4]triazolo[4,3-a][1,4]diazepin-6-yl)-N-ethylacetamide], the IC50 [4, 6] was 63.9 nM, the IC50 [3, 7] was 203 ± 57 nM and the concentration at 1 h [5] was 611 ng/mL. The concentration at 3 h [5] was 29 ng/mL and the concentration at 6 h [5] was 5 ng/mL.

`Cc1c(C#CC2CCOCC2)sc2c1C(c1ccc(Cl)cc1)=N[C@@H](CC(=O)N1CCOCC1)c1nnc(C)n1-2` [Compound 154, (S)-2-(4-(4-chlorophenyl)-3,9-dimethyl-2-((tetrahydro-2H-pyran-4-yl)ethynyl)-6H-thieno[3,2-f][1,2,4]triazolo[4,3-a][1,4]diazepin-6-yl)-1-morpholinoethan-1-one] gave an IC50 [4, 6] of 38.8 nM, a concentration at 1 h [5] of 1040 ng/mL and a concentration at 3 h [5] of 372 ng/mL. For the same molecule, the concentration at 6 h [5] was 220 ng/mL.

Work on `Cc1c(C#CCO)sc2c1C(c1ccc(Cl)cc1)=NCc1nnc(C)n1-2` [Cpd. No. 9, 3-(4-(4-chlorophenyl)-3,9-dimethyl-6H-thieno[3,2-f][1,2,4]triazolo[4,3-a][1,4]diazepin-2-yl)prop-2-yn-1-ol] yielded an IC50 [2] of 126 nM, an IC50 [4, 8] of 215 nM and an IC50 ([3]; MDA-MB-231, 96 h, read-out: Cell IC50 (nM) MDA-MB-231) of 412 nM.

For `Cc1c(C#CC2CCOCC2)sc2c1C(c1ccc(Cl)cc1)=N[C@@H](CC(=O)Nc1ccc(O)cc1)c1nnc(C)n1-2` [Compound 155, (S)-2-(4-(4-chlorophenyl)-3,9-dimethyl-2-((tetrahydro-2H-pyran-4-yl)ethynyl)-6H-thieno[3,2-f][1,2,4]triazolo[4,3-a][1,4]diazepin-6-yl)-N-(4-hydroxyphenyl)acetamide], the IC50 [4, 6] was 69.3 nM, the concentration at 1 h [5] was 832 ng/mL and the concentration at 3 h [5] was 127 ng/mL. It also gave a concentration at 6 h [5] of 42 ng/mL.
